Where two headings read alike, the source gives them in different places.
Legend:
[1] = system: JJN-3 (NIK translocated) multiple myeloma cells; assay: Antiproliferative activity on JJN-3 multiple myeloma cells (CellTiter-Glo, 96 hr), Biological Assay C; assay type: cell-based, human; details: JJN-3 (NIK translocated) cells, averaged values, read-out: JJN-3 Proliferation inhibition (IC50 (nM))
Summary of the method: (§1)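 Growth read-out was CellTiter-Glo luminescence after 96 h compound exposure, given as percent of no-drug control after subtracting a blank of cells read at dosing. Compounds ran as 9-point serial 1:3 dilutions in 0.3% DMSO, duplicate wells, on JJN-3 (15000/well) or KMS12-BM (20000/well) cells in RPMI 1640/10% FCS.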

[2] = system: P-IKKα levels in L363 (NIK translocated multiple myeloma) cells; assay: Effect of compounds on P-IKKα levels in L363 cells (Mesoscale sandwich immuno-assay), Biological Assay B; assay type: cell-based, human; details: 2 hr treatment, averaged values, read-out: Inhibition of pIKKα_L-363 (IC50 (nM))
Summary of the method: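 P-IKKα in lysates quantified by Mesoscale sandwich immunoassay after 2 h compound exposure in 1% DMSO, duplicate wells, 8-point 1:3 series. Human L363 cells had been preincubated 24 h with BAFF (1 μg/ml stock). Blank (10 μM ADS125117) subtracted; IC50 fitted sigmoidally to % inhibition of control.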

[3] = system: KMS12-BM (NIK WT) multiple myeloma cells; assay: Antiproliferative activity on KMS12-BM multiple myeloma cells (CellTiter-Glo, 96 hr), Biological Assay C; assay type: cell-based, human; details: averaged values, read-out: KMS-12 Proliferation inhibition (IC50 (nM))
Summary of the method: as §1

[4] = target: recombinant human NF-kappaB-inducing kinase (NIK/MAP3K14) (Homo sapiens, UniProt Q99558); assay: Inhibition of auto-phosphorylation of recombinant human NIK/MAP3K14 activity (AlphaScreen), Biological Assay A; assay type: biochemical; details: averaged values over all measurements on all batches
recombinant human NF-kappaB-inducing kinase (NIK/MAP3K14), sequence (Q99558 whole entry): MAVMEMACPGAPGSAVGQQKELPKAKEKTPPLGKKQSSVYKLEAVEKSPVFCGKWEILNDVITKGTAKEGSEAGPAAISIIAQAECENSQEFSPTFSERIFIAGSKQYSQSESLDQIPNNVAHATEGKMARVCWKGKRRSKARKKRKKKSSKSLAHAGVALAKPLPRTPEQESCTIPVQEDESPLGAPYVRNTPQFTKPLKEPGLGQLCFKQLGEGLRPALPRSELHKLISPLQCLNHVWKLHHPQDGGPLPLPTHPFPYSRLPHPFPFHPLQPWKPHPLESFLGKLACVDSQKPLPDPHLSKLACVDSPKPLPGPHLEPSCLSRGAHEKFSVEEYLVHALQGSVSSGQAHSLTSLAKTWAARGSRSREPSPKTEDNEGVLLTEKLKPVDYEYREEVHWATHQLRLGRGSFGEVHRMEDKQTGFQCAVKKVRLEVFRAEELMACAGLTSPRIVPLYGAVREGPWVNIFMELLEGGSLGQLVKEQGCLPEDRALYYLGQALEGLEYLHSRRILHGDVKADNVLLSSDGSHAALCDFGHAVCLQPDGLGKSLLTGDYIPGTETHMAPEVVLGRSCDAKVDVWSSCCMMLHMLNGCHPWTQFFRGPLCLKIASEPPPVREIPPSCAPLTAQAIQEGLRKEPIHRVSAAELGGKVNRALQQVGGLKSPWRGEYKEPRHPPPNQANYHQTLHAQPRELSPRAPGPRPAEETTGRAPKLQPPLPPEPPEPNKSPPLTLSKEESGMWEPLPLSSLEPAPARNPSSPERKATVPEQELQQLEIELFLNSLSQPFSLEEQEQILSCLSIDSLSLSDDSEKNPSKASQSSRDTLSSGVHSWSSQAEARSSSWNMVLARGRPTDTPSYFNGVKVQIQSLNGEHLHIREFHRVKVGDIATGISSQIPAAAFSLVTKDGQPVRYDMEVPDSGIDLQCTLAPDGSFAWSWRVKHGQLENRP
Summary of the method: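 AlphaScreen detection with anti-phospho-IKK Ser176/180 antibody plus Protein A acceptor/glutathione donor beads after 1 h, 25 °C reaction of 0.2 nM GST-tagged kinase, 25 μM ATP and compound. Buffer: 50 mM Tris pH 7.5, MgCl2, EGTA, DTT, vanadate; 1% DMSO. IC50 fitted sigmoidally to % inhibition.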

Compound | IC50 ([1]; Homo sapiens, JJN-3, 96 h) [nM] | IC50 ([2]; Homo sapiens, L-363, 2 h) [nM] | IC50 ([3]; Homo sapiens, KMS-12-BM, 96 h) [nM] | IC50 [4] [nM] | melting point [°C] | IC50 [1] [nM] | IC50 [3] [nM] | IC50 [2] [nM]
CNC(=O)c1cc(Nc2nccc(-c3cc(C#N)c4c(c3)[C@@](C)(CO)CN4)n2)c(C)cc1F [Compound 155] | 467 | 7.7 | > 10000 | 3.5 | 218 |  |  | 
CNC(=O)c1cc(Nc2nccc(-c3cc(C#N)c4c(c3)[C@@](C)(CO)CN4)n2)c(OC2CC2)cc1F [Compound 156] | 251 | 7.8 | > 10000 | 4.8 | 206 |  |  | 
CNC(=O)c1cc(Nc2nccc(-c3cc(C#N)c4c(c3)[C@@](C)(CO)CN4)n2)c(F)cc1OC1CC1 [Compound 157] | 178 | 12.9 | ~7590 | 4.9 | 235 |  |  | 
Cc1ccc(C(=O)NCCN2CCOCC2)cc1Nc1nccc(-c2cc(C#N)c3c(c2)[C@@](C)(CO)CN3)n1 [Compound 159] | 4790 | 20.4 | > 10000 | 5.5 | 140 |  |  | 
Cc1ccc(C(=O)N(C)C)cc1Nc1nccc(-c2cc(C#N)c3c(c2)[C@@](C)(CO)CN3)n1 [Compound 160] | 4790 | 64.6 | > 10000 | 11.2 | 206 |  |  | 
CNC(=O)c1cc(Nc2nccc(-c3cc(C#N)c4c(c3)[C@@](C)(CO)CN4)n2)c(F)cc1F [Compound 165] | 1120 | 6 | ~5250 | 3.6 | 224 |  |  | 
Cc1cc(CCCN)c(C#N)cc1Nc1nccc(-c2cc(C#N)c3c(c2)[C@@](C)(CO)CN3)n1 [Compound 170] | 81 | 2.3 | ~4680 | 1 | 207 |  |  | 
Cc1cc(C#CCN)c(C#N)cc1Nc1nccc(-c2cc(C#N)c3c(c2)[C@@](C)(CO)CN3)n1 [Compound 171] | 955 | 34.7 | > 10000 | 1.1 | 249 |  |  | 
CCC(=O)NCCCc1cc(C)c(Nc2nccc(-c3cc(C#N)c4c(c3)[C@@](C)(CO)CN4)n2)cc1C#N [Compound 172] | 65 | 2.4 | > 10000 | 4.8 | 193 |  |  | 
Cc1cc(CCN2CC(F)C2)c(C#N)cc1Nc1nccc(-c2cc(C#N)c3c(c2)[C@@](C)(CO)CN3)n1 [Compound 174] | 71 | 2 | > 10000 | 3.5 | 211 |  |  | 
Cc1cc(C2CCN(C)CC2)c(C#N)cc1Nc1nccc(-c2cc(C#N)c3c(c2)[C@@](C)(CO)CN3)n1 [Compound 175] | 27 | 2.8 | ~191 | 1.8 | 226 |  |  | 
Cc1cc(C2CCCN(C)C2)c(C#N)cc1Nc1nccc(-c2cc(C#N)c3c(c2)[C@@](C)(CO)CN3)n1 (some centres unmarked) [Compound 177] |  | 1.2 |  | 3.2 | 222 | 14 | ~246 | 
Cc1cc(C2CCCN(C)C2)c(C#N)cc1Nc1nccc(-c2cc(C#N)c3c(c2)[C@@](C)(CO)CN3)n1 (some centres unmarked) [Compound 179] |  |  |  | 2.2 | 188 | 58 | 1290 | 1.4
Cc1cc(F)c(C(=O)NCC2COC2)cc1Nc1nccc(-c2cc(C#N)c3c(c2)[C@@](C)(CO)CN3)n1 [Compound 183] | 501 | 7.1 | > 10000 | 9.1 | 209 |  |  | 
C[C@]1(CO)CNc2c(C#N)cc(-c3ccnc(Nc4cc(C#N)ccc4CCCCN)n3)cc21 [Compound 184] | 178 | 19.1 | > 10000 | 2.8 | 134 |  |  | 
Cc1cc(-c2cnn(C)c2)c(C#N)cc1Nc1nccc(-c2cc(C#N)c3c(c2)[C@@](C)(CO)CN3)n1 [Compound 188] | 54 | 5.4 | > 10000 | 2.6 | 190 |  |  | 

Reference: patent US11180487B2, “Substituted cyanoindoline derivatives as NIK inhibitors” (Janssen Pharmaceutica NV, priority 2016, dated 2021)
